Source: patent publication US11633370B2, “Use of scavengers of reactive gamma-ketoaldehydes to extend cell lifespan and healthspan” (Vanderbilt University, priority 2016, dated 2023)

Tests used:
VC199 SIR-2.1 mutants = assay: Oxygen consumption rate of whole worms, VC199; format: in vivo, C. elegans; details: whole worms over several days; p>0.05
Text: (§1) Mitochondria lie at the center of aging biology, playing crucial roles in energy production, carbon substrate metabolism, apoptosis regulation, and redox balance and signaling. Since sirtuins play a major role in regulating mitochondrial function, the present inventors next wanted to investigate whether SA was exerting any of its effects via protection of mitochondrial processes. To investigate SA's effects on mitochondrial respiration, the present inventors administered SA to WT N2 (FIG. 5A) and non-functional SIR-2.1 mutant worms (FIG. 5B) and measured oxygen consumption rate (OCR) in whole worms over several days. […] The present inventors also examined the effect of SA treatment on mitochondrial DNA (mtDNA) integrity.
Oxygen consumption rate for whole C. elegans was measured using a Seahorse Bioscience XF^e96 Analyzer. Worms were harvested from Day 0, 2, and 15 colonies maintained on FUDR containing SA-OP50-seeded NGM plates by washing in M9 medium, followed by floatation on an ice-cold 60% w/v sucrose gradient to segregate clean bacteria-free adult worms from bacterial debris. Worms were seeded at 1,000 worms/well in M9. After 20 min equilibration, a 2-min measurement was performed to obtain basal OCR for all experimental conditions and strains.

VC199 [sir-2.1(ok434)] = assay: Pharyngeal pumping rate, VC199; format: in vivo, C. elegans; details: increasing concentrations of SA, day 15; P=0.5
Procedure: As with the N2 strain, the present inventors treated VC199 nematodes with increasing concentrations of SA and assessed the age-dependent accumulation of autofluorescent lipofuscin granules and decrease in pharyngeal pumping rate.
C. elegans pharyngeal pumping rate assays were performed on 60-mm agar plates with bacterial lawns at room temperature. Every fifth day, worms were transferred to fresh bacteria-seeded NGM plates, and incubated at 25° C. for 10 min in order to equilibrate feeding rates before measurement. After 10 min incubation, worms were observed under the Zeiss TLB 3.1 microscope with focus on the pharynx. The number of contractions in the terminal bulb of the pharynx was counted for 20 s and then plotted.

N2 WT C. elegans [1] = assay: mtDNA copy number by qPCR, N2; format: in vivo; details: with age or with SA treatment
Text: as §1
Relative mitochondrial and nuclear copy number were measured by quantitative, real-time PCR [90]. Primers for NADH dehydrogenase unit 1 (nd1) and a 164 bp region of the cox-4 gene were used in determination of mtDNA copy number. The nd1 forward primer 5′-[…]-3′ and reverse primer 5′-[…]-3′. Cox-4 forward primer 5′-GCCGACTGGAAGAACTTGTC-3′ and reverse primer 5′-[…]-3′. […] Amplified products were detected with SYBR Green (iQ™ SYBR® Green Supermix, Bio-Rad) and fluorescent signal intensities were determined by CFX96 Touch™ Real-Time PCR Detection System (Bio-Rad) by software CFX Manager™ (version 3.1). […]

[2] = tested on: intact cells exposed to hydrogen peroxide; details: SA pre-treatment, vehicle control 95% cell death; cited from earlier work
daf-16(mu86) = assay: Longevity assay, daf-16 gene knockout mutant strain; format: in vivo, C. elegans; details: SA from day 1 of adulthood; P<0.01 versus vehicle control
Procedure: (§2) C. elegans strains were cultured at 20° C. on standard nematode growth media (NGM) agar plates seeded with Escherichia coli strain NA22. The following strains were used in this work: wild-type C. elegans Bristol strain (N2), sir-2.1(ok434) IV, F19F10.5(ok888) V, and daf-16(mu86). Strains were obtained from the Caenorhabditis Genetics Center (University of Minnesota, St. Paul, Minn.). For generating cultures of 15-day-old (Day 15) adult worms, synchronized late-stage L4s/early young adult worms were transferred to peptone enriched 15 cm plates containing UV-irradiated OP50 E. coli and 0.12 mM 5-fluoro-2′-deoxyuridine (FUDR) to inhibit progeny production[88] with or without drug until harvest.
Survival cultures were grown on 60-mm agar plates; after the late-stage L4/young adult molt, approximately 100 adults were transferred onto SA-OP50-seeded NGM plates. Salicylamine drug plates were made fresh before transfer by spreading SA on top of the agar. […] Worms were maintained at 20° C. and live worms were counted during transfer to freshly made SA-OP50-NGM agar plates every 2-3 days. Survival was scored as movement upon slight touch with the platinum wire. […]
FIG. 7 (S1). […] Survival was assessed every 2 days until all the worms died. […] Data are expressed as means±SEM from four independent experiments. *P<0.01 as compared to vehicle control.

N2 WT C. elegans [3] = assay: Longevity assay, wild-type N2 worms; format: in vivo; details: for increase in median lifespan: continuous from Day 1 of adulthood until natural death, versus 16 days; for median lifespan: control 16 days
Procedure: as §2
Nematodes grown on NGM-agar plates containing 0.5% peptone, were harvested, and eggs were isolated by alkaline hypochlorite with 0.5 N NaOH, 1% hypochlorite; 8 min at 23° C. The recovered eggs were rinsed in M9 buffer and placed on fresh agar plates seeded with E. coli strain OP50 and maintained at 20° C. until late-L4/young adult stage. After the late L4/young adult molt, worms were transferred to peptone enriched 15 cm plates containing 0.12 mM FUDR, OP50 E. coli, and varying concentrations of SA. Salicylamine drug plates were made fresh before transfer by spreading SA on top of the agar and plates were allowed to dry. E. coli strain OP50 was exposed to UV radiation for 30 minutes to kill the bacteria before seeding onto the SA-FUDR NGM agar plates. Worms were exposed to SA throughout its life until harvest by transferring worms to fresh SA-FUDR-OP50 NGM plates every other day.
Survival cultures were grown on 60-mm agar plates; after the late-stage L4/young adult molt, approximately 100 adults were transferred onto SA-OP50-seeded NGM plates. Salicylamine drug plates were made fresh before transfer by spreading SA on top of the agar. Plates were allowed to dry before seeding with UV-irradiated OP50 bacteria. Worms were maintained at 20° C. and live worms were counted during transfer to freshly made SA-OP50-NGM agar plates every 2-3 days. Survival was scored as movement upon slight touch with the platinum wire. Worms were maintained until death.

NCc1ccccc1O [SA, salicylamine]
mitochondrial oxygen consumption rate (OCR) (VC199 SIR-2.1 mutants): no effect
pharyngeal pumping rate (VC199 [sir-2.1(ok434)]): failed to preserve pharyngeal pumping rate
mtDNA copy number relative to nuclear DNA (N2 WT C. elegans [1]): no significant difference
occurrence in cell death [2]: 5%
maximum and median lifespan (daf-16(mu86)): increased maximum and median lifespan
increase in median lifespan (N2 WT C. elegans [3]; 50 μM SA): 18%
median lifespan (N2 WT C. elegans [3]; 50 μM SA): 19 days
increase in median lifespan (N2 WT C. elegans [3]; 100 μM SA, p<0.05): 32%
median lifespan (N2 WT C. elegans [3]; 100 μM SA): 21 days
increase in median lifespan (N2 WT C. elegans [3]; 500 μM SA, p<0.01): 56%
median lifespan (N2 WT C. elegans [3]; 500 μM SA): 25 days
